# In patent US20260306460A1, “COMPOSITION FOR REMOVING AND INHIBITING SENESCENT CELLS, AND USES THEREOF” (LIFECEUTIX CO., LTD., priority 2023, published 2026):
# Assays:
# [1] = system: obesity-induced aged C57BL6J mice; test: Anxiety, depression, lethargy (open field test) in obesity-aged mice, Example 23-4, Table 44; type: in vivo, mouse; conditions: for geriatric depression: obesity-aged mice; for Open Field Test Time in Center: obesity-induced aged mice, daily for 21 days, activity after obesity-induced aging calculated as 100%
# How it was run: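 Male C57BL6J mice were made obese on a high-fat diet from 15 weeks of age. Compounds were given daily for 21 days: LX-3002 10 mg/kg orally, LX-5701 360 mg/kg orally, LX-6807 1 mg/kg intraperitoneally, with vehicle-treated controls. Open-field activity was then expressed relative to obese untreated mice set at 100%.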
# [2] = system: naturally aged C57BL6J mice; test: Geriatric depression and anxiety in aged mice, Example 21-8; type: in vivo, mouse; conditions: for amount of SASP, p16, SA-β-gal, lipofuscin / symptoms of geriatric depression and anxiety: aged mice; for amount of SASP in serum and tissues: mice of Examples 21-5 and 21-6
# Source text: The amount of senescent-associated secretory factor (SASP) in serum and tissues collected from mice of Examples 21-5 and 21-6 was reduced by treatment with LX-5701, LX-2101, or LX-2102. It was confirmed that removing senescent cells, which increase with aging in mice, and effectively reducing the amount of senescent-associated secretory factor (SASP) can improve symptoms of geriatric depression and anxiety.
# [3] = system: doxorubicin-induced aged C57BL6J mice; test: Fatigue, weakness and weight loss in doxorubicin-aged mice, Example 22-7, Table 36; type: in vivo, mouse; conditions: for Grip Sterenght Test Strength / Open Field Test Time in Center / Wire Hanging Test Time: amount after aging calculated as 100%; for Mean Body Weight: untreated 20.8 (±1.7)
# Protocol: Eight-week-old male C57BL6J mice (KRIBB Laboratory Animal Resource Center) were acclimated to the experimental environment for one week. […] The aging-induced mice were randomly assigned to experimental and control groups. […] The control group received only the solution in the same volume. After the end of drug administration, the methods described in each example below were performed.
# The amount of each evaluation after aging was calculated as 100% and compared with the amount of each evaluation after test compound treatment.
# [4] = system: doxorubicin-induced aged C57BL6J mice; test: Bone marrow function (CAFC assay) in doxorubicin-aged mice, Example 22-12, Table 41; type: in vivo, mouse; conditions: bone marrow of doxorubicin-induced aged mice, 5 weeks of culture; untreated 1.8 (±0.1)
# Protocol: Eight-week-old male C57BL6J mice (KRIBB Laboratory Animal Resource Center) were acclimated to the experimental environment for one week. Afterwards, the anticancer agent doxorubicin was administered intraperitoneally at a concentration of 10 mg/kg, inducing aging for more than 10 days. The aging-induced mice were randomly assigned to experimental and control groups. LX-403 was mixed with a 10% ethanol solution of PEG400 and administered orally at a concentration of 25 mg/kg or intradermally at a concentration of 1 μM for 21 days. LX-1801 was mixed in distilled water with 4% DMSO, 30% PEG300, and 5% Tween80 and administered intradermally at a concentration of 0.4 μM daily for 21 days. LX-2001 was mixed in PBS and administered intradermally at a concentration of 2 μM daily for 21 days. LX-2002 was mixed in distilled water with 4% DMSO, 30% PEG300, and 5% Tween80 and administered intradermally at a concentration of 2 μM daily for 21 days. […] LX-2005 was mixed in distilled water with 4% DMSO, 30% PEG300, and 5% Tween80 and administered intradermally at a concentration of 90 μM daily for 21 days. LX-2007 was mixed in distilled water with 4% DMSO, 30% PEG300, and 5% Tween80 and administered intradermally at a concentration of 90 μM daily for 21 days. […] LX-3002 was mixed in distilled water with 4% DMSO, 30% PEG300, and 5% Tween80 and administered orally at a concentration of 10 mg/kg daily for 21 days. […] LX-5411 was mixed in 5% phosphate-buffered saline (PBS) and administered orally at a concentration of 10 mg/kg daily for 21 days or intradermally at a concentration of 3 μM. LX-5701 was mixed in PBS and administered orally at a concentration of 360 mg/kg daily for 21 days. LX-6807 was mixed in saline and administered intraperitoneally at a concentration of 1 mg/kg daily for 21 days. The control group received only the solution in the same volume. After the end of drug administration, the methods described in each example below were performed.
# Damage to the immune system, including the bone marrow, after chemotherapy is known to induce inflammatory responses and contribute to drug resistance and adverse effects. To analyze the function of bone marrow hematopoietic cells in mice induced to age by the anticancer agent, a cobblestone-area-forming-cell (CAFC) assay was performed. Specifically, bone marrow cells (BMCs) were collected from the femurs and tibias of mice, and BM-MNCs (mono-nuclear cells) were cultured in MethoCult™ GF M3434 methylcellulose medium (Stem Cell™ Technologies Inc, Canada). FBMD-1 stromal cells were seeded in each well of a 96-well plate to prepare a support cell stromal layer. […] After 5 weeks of culture, CAFCs were counted using an optical microscope.
# [5] = system: senescent A549 cells; test: Viability of senescent A549 cells (CellTiter-Glo), Example 18, Table 15; conditions: Homo sapiens, A549, read-out: Survival (%)
# Protocol: Senescence-induced cancer cells treated with doxorubicin were treated with the test compound at designated concentrations, and cell viability was measured using the CellTiter-Glo Luminescent Cell Viability Assay (Promega).
Compound,geriatric depression [1],"amount of SASP, p16, SA-β-gal, lipofuscin [2]",symptoms of geriatric depression and anxiety [2],amount of SASP in serum and tissues [2],Grip Sterenght Test Strength [3],Open Field Test Time in Center [3],Wire Hanging Test Time [3],Mean Body Weight [3],CAFCs/10^5 BMCs [4],Open Field Test Time in Center [1],viability at 1.1 µM [5] [%],viability at 10 µM [5] [%],viability at 30 µM [5] [%]
COC(=O)c1ccc([C@H]2c3[nH]c4ccccc4c3C[C@H](C(=O)OC)N2C(=O)CCl)cc1 [LX-405],similarly improving geriatric depression,reduced,improved,–,–,–,–,–,–,–,–,–,–
"CC1(C)CC[C@]2(NC(=O)C(C)(F)F)CC[C@]3(C)[C@H](C(=O)C=C4[C@@]5(C)C=C(C#N)C(=O)C(C)(C)[C@@H]5CC[C@]43C)[C@@H]2C1 [LX-2101, Omaveloxolone]",similarly improving geriatric depression,reduced,improved,reduced,–,–,–,–,–,–,–,–,–
"COC(=O)[C@]12CCC(C)(C)C[C@H]1[C@H]1C(=O)C=C3[C@@]4(C)C=C(C#N)C(=O)C(C)(C)[C@@H]4CC[C@@]3(C)[C@]1(C)CC2 [LX-2102, Bardoxolone methyl]",–,–,–,reduced,–,–,–,–,–,–,–,–,–
"CCCC\C=C/C=C/C=C\CCCCCCCC(=O)O [LX-2707, Punicic acid]",similarly improving geriatric depression,reduced,improved,–,128 (±5.7) %,232 (±33.6) %,192 (±12.7) %,22.4 (±2.1) g,2.7 (±0.2) CAFCs/10^5 BMCs,224 (±12.8) %,–,–,–
"COC(=O)[C@H]1Cc2c([nH]c3ccccc23)[C@H](c2ccc(S(C)(=O)=O)cc2)N1C(=O)CCl [LX-5401, methyl (1S,3R)-2-(2-chloroacetyl)-1-(4-(methylsulfonyl)phenyl)-2,3,4,9-tetrahydro-1H-pyrido[3,4-b]indole-3-carboxylate]",similarly improving geriatric depression,reduced,improved,–,–,–,–,–,–,–,92.7,43.8,1.9
C#CC(=O)N1[C@@H](CCCC)Cc2cc(OC)ccc2[C@@H]1c1ccc(NC23CC4CC(CC(C4)C2)C3)cc1 [LX-5411],similarly improving geriatric depression,reduced,improved,–,–,–,–,–,–,–,75.4,5.3,–
O=C1C2CCN(CC2)C1CNC(=O)C(F)(F)F (centres unmarked) [LX-5701],–,reduced,improved,reduced,117 (±6.9) %,192 (±24.3) %,139 (±8.2) %,23.0 (±2.8) g,3.3 (±0.2) CAFCs/10^5 BMCs,217 (±20.1) %,82.3,43.8,16.2
"Cc1cccc([C@H](C)c2cnc[nH]2)c1C [LX-6807, Dexmedetomidine]",similarly improving geriatric depression,reduced,improved,–,137 (±6.3) %,249 (±34.1) %,209 (±14.5) %,23.2 (±2.7) g,3.5 (±0.2) CAFCs/10^5 BMCs,202 (±18.2) %,94.1,76.5,6.6
Tocofersolan [LX-3001],–,reduced,improved,–,120 (±9.3) %,–,127 (±13.3) %,21.2 (±1.3) g,2.1 (±0.2) CAFCs/10^5 BMCs,168 (±11.9) %,–,–,–
